Reference: ChEMBL document CHEMBL1201862, “PubChem BioAssay data set” (2004)
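Dose response: 5 concentrations. Exposure: 48 h. Format: 96-well plates. Endpoint: linear interpolation; highest concentration if not reached. GI50: concentration for 50% inhibition of growth.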 Active and inactive are the calls of the source. No stated cut-off is given here; in the data, active = GI50 up to about 1.1 µM and inactive = higher.

Columns and labels:
Test in all cases: DTP human tumour cell line panel, 48 h
786-0 = system: 786-0
A498 = system: A498
A549 = system: A549
ACHN = system: ACHN
BT-549 = system: BT-549
CAKI-1 = system: CAKI-1
CCRF-CEM = system: CCRF-CEM
COLO 205 = system: COLO 205
DU-145 = system: DU-145
EKVX = system: EKVX
HCC 2998 = system: HCC 2998
HCT-116 = system: HCT-116
HCT-15 = system: HCT-15
HL-60 = system: HL-60
HOP-62 = system: HOP-62
HT-29 = system: HT-29
Hs-578T = system: Hs-578T
IGROV-1 = system: IGROV-1
K562 = system: K562
KM12 = system: KM12
LOX IMVI = system: LOX IMVI
M14 = system: M14
MCF7 = system: MCF7
MDA-MB-231 = system: MDA-MB-231
MDA-MB-435 = system: MDA-MB-435
MDA-N = system: MDA-N
MOLT-4 = system: MOLT-4
Malme-3M = system: Malme-3M
NCI-H226 = system: NCI-H226
NCI-H23 = system: NCI-H23
NCI-H460 = system: NCI-H460
NCI-H522 = system: NCI-H522
NCI/ADR-RES = system: NCI/ADR-RES
OVCAR-3 = system: OVCAR-3
OVCAR-4 = system: OVCAR-4
OVCAR-5 = system: OVCAR-5
OVCAR-8 = system: OVCAR-8
PC-3 = system: PC-3
RPMI-8226 = system: RPMI-8226
RXF 393 = system: RXF 393
SF-268 = system: SF-268
SF-295 = system: SF-295
SF-539 = system: SF-539
SK-MEL-28 = system: SK-MEL-28
SK-MEL-2 = system: SK-MEL-2
SK-MEL-5 = system: SK-MEL-5
SK-OV-3 = system: SK-OV-3
SN12C = system: SN12C
SNB-19 = system: SNB-19
SNB-75 = system: SNB-75
SR = system: SR
SW-620 = system: SW-620
T47D = system: T47D
TK-10 = system: TK-10
U-251 = system: U-251
UACC-257 = system: UACC-257
UACC-62 = system: UACC-62
UO-31 = system: UO-31
HOP-92 = system: HOP-92

Compound: O=c1ccc2ccc(OP(=O)(O)O)cc2o1
- GI50 (786-0): > 100 µM (inactive)
- GI50 (A498): > 100 µM (inactive)
- GI50 (A549): > 100 µM (inactive)
- GI50 (ACHN): > 100 µM (inactive)
- GI50 (BT-549): > 100 µM (inactive)
- GI50 (CAKI-1): > 100 µM (inactive)
- GI50 (CCRF-CEM): > 100 µM (inactive)
- GI50 (COLO 205): > 100 µM (inactive)
- GI50 (DU-145): 93.1 µM (inactive)
- GI50 (EKVX): > 100 µM (inactive)
- GI50 (HCC 2998): > 100 µM (inactive)
- GI50 (HCT-116): > 100 µM (inactive)
- GI50 (HCT-15): > 100 µM
- GI50 (HL-60): > 100 µM (inactive)
- GI50 (HOP-62): > 100 µM (inactive)
- GI50 (HT-29): > 100 µM (inactive)
- GI50 (Hs-578T): > 100 µM (inactive)
- GI50 (IGROV-1): > 100 µM (inactive)
- GI50 (K562): > 100 µM (inactive)
- GI50 (KM12): > 100 µM (inactive)
- GI50 (LOX IMVI): > 100 µM (inactive)
- GI50 (M14): > 100 µM (inactive)
- GI50 (MCF7): > 100 µM (inactive)
- GI50 (MDA-MB-231): > 100 µM (inactive)
- GI50 (MDA-MB-435): > 100 µM (inactive)
- GI50 (MDA-N): > 100 µM (inactive)
- GI50 (MOLT-4): > 100 µM (inactive)
- GI50 (Malme-3M): > 100 µM (inactive)
- GI50 (NCI-H226): > 100 µM (inactive)
- GI50 (NCI-H23): > 100 µM (inactive)
- GI50 (NCI-H460): > 100 µM (inactive)
- GI50 (NCI-H522): > 100 µM (inactive)
- GI50 (NCI/ADR-RES): > 100 µM (inactive)
- GI50 (OVCAR-3): > 100 µM (inactive)
- GI50 (OVCAR-4): > 100 µM (inactive)
- GI50 (OVCAR-5): > 100 µM (inactive)
- GI50 (OVCAR-8): > 100 µM (inactive)
- GI50 (PC-3): > 100 µM (inactive)
- GI50 (RPMI-8226): > 100 µM (inactive)
- GI50 (RXF 393): > 100 µM (inactive)
- GI50 (SF-268): > 100 µM (inactive)
- GI50 (SF-295): > 100 µM (inactive)
- GI50 (SF-539): > 100 µM (inactive)
- GI50 (SK-MEL-28): > 100 µM (inactive)
- GI50 (SK-MEL-2): > 100 µM (inactive)
- GI50 (SK-MEL-5): > 100 µM (inactive)
- GI50 (SK-OV-3): > 100 µM (inactive)
- GI50 (SN12C): > 100 µM (inactive)
- GI50 (SNB-19): > 100 µM (inactive)
- GI50 (SNB-75): > 100 µM (inactive)
- GI50 (SR): > 100 µM (inactive)
- GI50 (SW-620): > 100 µM (inactive)
- GI50 (T47D): > 100 µM (inactive)
- GI50 (TK-10): > 100 µM (inactive)
- GI50 (U-251): > 100 µM (inactive)
- GI50 (UACC-257): > 100 µM (inactive)
- GI50 (UACC-62): > 100 µM (inactive)
- GI50 (UO-31): > 100 µM (inactive)

Compound: N#CNC(=N)Nc1ccc(Cl)cc1
- GI50 (786-0): > 100 µM (inactive)
- GI50 (A498): > 100 µM (inactive)
- GI50 (A549): > 100 µM (inactive)
- GI50 (ACHN): > 100 µM (inactive)
- GI50 (BT-549): > 100 µM (inactive)
- GI50 (CAKI-1): > 100 µM (inactive)
- GI50 (COLO 205): > 100 µM (inactive)
- GI50 (DU-145): > 100 µM (inactive)
- GI50 (EKVX): > 100 µM (inactive)
- GI50 (HCC 2998): > 100 µM (inactive)
- GI50 (HCT-116): > 100 µM (inactive)
- GI50 (HCT-15): > 100 µM
- GI50 (HOP-62): > 100 µM (inactive)
- GI50 (HOP-92): > 100 µM (inactive)
- GI50 (HT-29): > 100 µM (inactive)
- GI50 (Hs-578T): > 100 µM (inactive)
- GI50 (IGROV-1): > 100 µM (inactive)
- GI50 (K562): > 100 µM (inactive)
- GI50 (KM12): > 100 µM (inactive)
- GI50 (LOX IMVI): > 100 µM (inactive)
- GI50 (M14): > 100 µM (inactive)
- GI50 (MCF7): > 100 µM (inactive)
- GI50 (MDA-MB-231): > 100 µM (inactive)
- GI50 (MDA-MB-435): > 100 µM (inactive)
- GI50 (MDA-N): > 100 µM (inactive)
- GI50 (MOLT-4): 36.4 µM (inactive)
- GI50 (Malme-3M): > 100 µM (inactive)
- GI50 (NCI-H226): 85.1 µM (inactive)
- GI50 (NCI-H23): > 100 µM (inactive)
- GI50 (NCI-H460): > 100 µM (inactive)
- GI50 (NCI-H522): > 100 µM (inactive)
- GI50 (NCI/ADR-RES): > 100 µM (inactive)
- GI50 (OVCAR-3): > 100 µM (inactive)
- GI50 (OVCAR-4): > 100 µM (inactive)
- GI50 (OVCAR-5): > 100 µM (inactive)
- GI50 (OVCAR-8): > 100 µM (inactive)
- GI50 (PC-3): > 100 µM (inactive)
- GI50 (RPMI-8226): > 100 µM (inactive)
- GI50 (RXF 393): > 100 µM (inactive)
- GI50 (SF-268): > 100 µM (inactive)
- GI50 (SF-295): > 100 µM (inactive)
- GI50 (SF-539): > 100 µM (inactive)
- GI50 (SK-MEL-28): > 100 µM (inactive)
- GI50 (SK-MEL-2): > 100 µM (inactive)
- GI50 (SK-MEL-5): > 100 µM (inactive)
- GI50 (SK-OV-3): > 100 µM (inactive)
- GI50 (SN12C): > 100 µM (inactive)
- GI50 (SNB-19): > 100 µM (inactive)
- GI50 (SNB-75): > 100 µM (inactive)
- GI50 (SR): > 100 µM (inactive)
- GI50 (SW-620): > 100 µM (inactive)
- GI50 (T47D): > 100 µM (inactive)
- GI50 (TK-10): > 100 µM (inactive)
- GI50 (U-251): > 100 µM (inactive)
- GI50 (UACC-257): > 100 µM (inactive)
- GI50 (UACC-62): > 100 µM (inactive)
- GI50 (UO-31): > 100 µM (inactive)
